Assay results reported in patent US9376662B2, “Increasing cell culture population doublings for long-term growth of finite life span human cell cultures” (The Regents of the University of California, priority 2006, dated 2016).
Entries after “also recorded” stand apart in the source; their conditions may differ.

Key:
Format in all cases: cell-based, human
pre-stasis HMEC [1] = experiment: Long-term growth of pre-stasis HMEC: total population doublings (PD) prior to stasis; details: for total PD with oxytocin added to M85: oxytocin added at primary culture or passage 2
Description: See FIG. 7, where the increased PD shown by HMEC from specimen 184, batch ⋄, is also seen in HMEC obtained from the 2 other donors tested, 48R, batch T, and 240L, batch B. Specimen 240L was grown only in M85 with oxytocin from primary organoids. Specimen 48R was grown in M85±oxytocin from primary organoids. For comparison, growth of specimen 184 in MM is shown. 184 HMEC batch ⋄ and 48RT+oxytocin were grown in 20% O2. The other cultures were grown in 3% O2.
HMEC placed in a medium containing ˜1% serum and conditioned media (MM) have active growth for ˜15-30 PD; cells grown in a serum-free medium (MCDB170) show active proliferation for ˜10-20 PD; HMEC grown in MM in a low oxygen environment (3% vs. 20%) grow for an additional ˜4 PD.
(§1) Short-term growth assays are done by measuring 24 hr labeling index (LI) at midconfluence and p16 expression and cell numbers at confluence in different media (as shown in FIG. 13). […] Other assays will transfer growing populations a few passages before stasis to media lacking specific components and assay LI and p16 (as shown in FIG. 12).

p16 protein = experiment: Immunohistochemical staining for p16 protein and labeling index (LI) in pre-stasis HMEC; details: 184 HMEC in M85, 48 days post-seeding, 20% O2
Text: Note the gradually increasing expression of p16 with passage and the gradual reduction in the growing population. Note also the reciprocity between positive labeling of the small cell population with BrdU and the positive staining of the larger cell population for p16 expression.
Referring now to FIGS. 3-5, which show pre-stasis growth of 184 HMEC in different media and immunohistochemical staining for p16 protein. 184 HMEC were started in M85 and subcultured at passage 2 into M85 with cholera toxin with or without oxytocin, in 20% O2. […] Note the large cells staining for p16 with the small cells still negative for p16 but positive for LI (indicative of DNA synthesis).
as §1

pre-stasis HMEC [2] = experiment: Growth of pre-stasis HMEC on different substrates; details: compared with plastic
Description: Referring to FIG. 18, 184 HMEC, batch f, were grown in MM in primary culture and switched to M85 at passage 2. At passage 4 they were switched to M87 and grown on plastic (♦), laminin on plastic (▪), or laminin on LUMOX dishes (▴) (which allow the cells to grow on a gas-permeable substrate).
Referring to FIG. 19, pre-stasis 48RT HMEC were grown from primary culture in M85+oxytocin and switched at passage 6 to growth on laminin on plastic or plastic alone.

Compound	growth conditions at the lower oxytocin concentration (pre-stasis HMEC [1]; 0.1 nM compared with 1.0 nM oxytocin)	PD potential in the presence of oxytocin (pre-stasis HMEC [1]; 184 HMEC in M85 with or without oxytocin)	increase in population doublings by oxytocin (pre-stasis HMEC [1]; M85 base medium, about 45 PD to about 60 PD) [%]	total PD with oxytocin added to M85 (pre-stasis HMEC [1]; M85 base medium)	total PD with oxytocin added to M85 (pre-stasis HMEC [1]; M85 base medium, listed as Oxytocin)	p16 expression with oxytocin compared to without (p16 protein)	proliferation as the cells approach stasis (pre-stasis HMEC [2])
CC[C@H](C)[C@@H]1NC(=O)[C@H](Cc2ccc(O)cc2)NC(=O)[C@@H](N)CSSC[C@@H](C(=O)N2CCC[C@H]2C(=O)N[C@@H](CC(C)C)C(=O)NCC(N)=O)NC(=O)[C@H](CC(N)=O)NC(=O)[C@H](CCC(N)=O)NC1=O [oxytocin]	provided better growth conditions than 1.0 nM	greatly increased PD potential; also recorded: significant increase in total PD	33	around 60 PD	up to 60 PD	lower level of p16 expression	
laminin							more proliferation occurred
